From US9084766B2, “Compounds and compositions for targeting cancer stem cells” (Boston Biomedical, Inc., priority 2010, dated 2015)
pIC50: −log10 of the molar value. Values joined by “and” are separate entries in the source; they are usually repeats but may differ in a detail not shown here. Equal entries are not always repeated. “Also recorded” adds a separate entry of the source. Where two headings read alike, the source gives them in different places.

Columns and labels:
[1] = test system: cancer cells or cancer stem cells; experiment: In vitro IC50 on cancer cells or cancer stem cells; assay type: cell-based
CD34+ BM Erythroid = experiment: IC50 versus treatment time, CD34+ BM Erythroid; assay type: cell-based; details: normal cells CD34+ BM Erythroid, treatment time 12-24 h
Protocol: (§1) The studies described herein discovered counter-intuitively that cancer cells and cancer stem cells requires much shorter exposure than normal cells to be killed by Compound 1. Normal cells can tolerate up to 24 hours of exposure to Compound 1. Furthermore, the studies here discovered that normal cells can recover after a short period of no-drug exposure, while cancer cells cannot recover once they are exposed to a certain concentration of the Compound 1 for at least 2 hours. Based on these studies, a special pharmacokinetic exposure [termed selective pharmacokinetic profile (SPP), or preferred pharmacokinetic profile (PPP), which is used interchangeably in this publication] was designed for Compound 1 using the data shown below in Table 14 for achieving selective antitumor activity in patients (FIG. 24).

CD34+ BM Myeloid = experiment: IC50 versus treatment time, CD34+ BM Myeloid; assay type: cell-based; details: normal cells CD34+ BM Myeloid, treatment time 12-24 h
Protocol: as §1

advanced solid tumors = experiment: Phase I clinical trial: tumor response (RECIST 1.1) and progression free survival; assay type: in vivo, human
Excerpt: As of Feb. 7, 2011, 42 cancer patients with various advanced solid tumors who have failed chemotherapies were enrolled in the study.
Of the 42 patients dosed, 24 were evaluable for tumor response as of Feb. 7, 2011; 16 (16/24 evaluable patients) achieved stable disease (8 to 75+ weeks).

[2] = test system: FaDu human head and neck cancer; experiment: Antitumor activity in subcutaneous FaDu xenograft mice; assay type: in vivo
Protocol: In the studies shown in FIG. 8, immunosuppressed mice with established subcutaneous FaDu human head and neck cancer were given indicated amount of hand grounded Compound 1 with Crystal Form 1, or vehicle control orally (po). Compound 1 was formulated in […]™. All regimens were administered daily (qd). Tumor sizes were evaluated periodically during treatment.
In the study shown in FIG. 9, immunosuppressed mice with established subcutaneous FaDu human head and neck cancer were given 100 mg/kg of micronized Compound 1 produced with the synthetic process described in FIGS. 5A and 5B (first crop), or vehicle control orally (po). Compound 1 was formulated in […]™. All regimens were administered daily (qd). Tumor sizes were evaluated periodically during treatment. Form 2 has been successfully manufactured by a current good manufacturing practice (cGMP) process and received approval from the FDA and Health Canada to be used in clinical trials.
Form 3 can only be generated from Form 1 using a specially designed slurry process described herein. […] In the study shown in FIG. 10, immunosuppressed mice with established subcutaneous FaDu human head and neck cancer were given 200 mg/kg of Compound 1 with hand grounded Crystal Form 1 or Form 3, or vehicle control orally (po). Compound 1 was formulated in gelucire. All regimens were administered daily (qd). Tumor sizes were evaluated periodically during treatment. This polymorph has been successfully manufactured by a cGMP process and received approval from FDA and Health Canada to be used in clinical trials.
The anti-tumor activity of particles of Compound 1 with different particle size ranges is illustrated in FIG. 15, and the pharmacokinetic data for particles of Compound 1 with different particle size ranges is illustrated in FIGS. 16-18. In the study shown in FIG. 15, immunosuppressed mice with established subcutaneous FaDu human head and neck cancer were given indicated amount of Compound 1 with indicated particle size, or vehicle control orally (po). All regimens were administered daily (qd). Tumor size was evaluated periodically.
In an experiment, a formulation of Compound 1 particles sieved to 160 micron was tested in the model of immunosuppressed mice with established subcutaneous xenograft FaDu human head and neck cancer. The pharmaceutical composition was formulated as 80 mg/ml in 9% Gelucire, 20% Vitamin E TPGS (Table 3). […] All regimens were administered daily (qd).
In an experiment, Compound 1 crystals were milled to a median particle size of about 20 micron. […] All regimens were administered daily (qd).
FaDu human head and neck cancer cells were inoculated subcutaneously into female athymic nude mice (6×10^6 cells/mouse) and allowed to form palpable tumors. When the tumors reached approximately 100 mm^3, the animals were treated orally (po) with Compound 1 at 100 mg/kg or vehicle control daily. Compound 1 was formulated at 10 mg/ml in 20% gelucire. Tumors and bodyweights were measured throughout treatment (FIG. 15).
Daily examinations into the health status of each animal were also conducted. Body weights were checked every three days. Food and water was supplied daily according to the animal husbandry procedures of the facility. Treatment producing>20% lethality and or >20% net body weight loss were considered toxic. Results are expressed as mean tumor volume (mm^3)±SE. P Values<0.05 are considered to be statistically relevant.
Male or female athymic nude mice 4-5 weeks (Charles River Laboratories, Wilmington, Mass.), were acclimated to the animal housing facility for at least 1 week before study initiation. […]

[3] = test system: cancer cells and normal cells; details: Hirai et al. 1999; Takano et al. 2009; previous studies; cited from earlier work
[4] = patient 0001, total daily dose 20 mg qd, Colon adenocarcinoma
[5] = patient 0013, total daily dose 400 mg bid, Gastric adenocarcinoma
[6] = patient 0014, total daily dose 400 mg bid, Ovarian cancer
[7] = patient 0015, total daily dose 400 mg bid, Colon adenocarcinoma
[8] = patient 0020, total daily dose 600 mg bid, Breast Cancer

`CC(=O)c1cc2c(o1)C(=O)c1ccccc1C2=O` [Compound 1, 2-acetyl-4H,9H-naphtho[2,3-b]furan-4,9-dione] showed a pIC50 ([1]; preclinical studies, read-out: IC50 to kill cancer cells or cancer stem cells) of 6.70 to 7.00, a pIC50 ([1]; read-out: IC50 of the compound in vitro) of 6.30 to 7.52 and a pIC50 (CD34+ BM Erythroid) of under 4.52. The pIC50 (CD34+ BM Myeloid) was under 4.52, the “patients showing prolonged SD (>12 weeks)” value (advanced solid tumors; RECIST 1.1) was 12 patients and the “evaluable patients with SD/MR by RECIST” value (advanced solid tumors; as of Feb. 7, 2011) was 16/24 and 16 out of 24. The progression free survival (advanced solid tumors; blood drug concentration above 1 uM, diverse cancers (FIG. 23)) was “increase in progression free survival”, the “patients in whom new metastatic lesions were prevented” value (advanced solid tumors; of patients dosed) was 83% and the “patients showing no metastatic tumors” value (advanced solid tumors; out of 24 evaluable patients with advanced refractory cancers) was “over 80%”. The “response of colon cancer metastatic lesion to kidney” value (advanced solid tumors; patient 0001, 20 mg daily (FIG. 19)) was “complete regression; also recorded: signs of potent antitumor activity”, the “New Lesions” value (advanced solid tumors; [4]) was 1 and the regression (advanced solid tumors; [4]) was “(regression 27.6%)”. The “New Lesions” value (advanced solid tumors; patient 0002, total daily dose 40 mg qd, Gastric adenocarcinoma) was 3, the “New Lesions” value (advanced solid tumors; patient 0003, total daily dose 80 mg qd, Head and Neck carcinoma) was 0 and the “New Lesions” value (advanced solid tumors; patient 0004, total daily dose 80 mg bid, Colon adenocarcinoma) was 0. The “New Lesions” value (advanced solid tumors; patient 0006, total daily dose 160 mg bid, Lung adenocarcinoma) was 0, the “New Lesions” value (advanced solid tumors; patient 0008, total daily dose 320 mg bid, Colon adenocarcinoma) was 2 and the “New Lesions” value (advanced solid tumors; patient 0010, total daily dose 320 mg bid, Colon adenocarcinoma) was 0. For the same molecule, the “New Lesions” value (advanced solid tumors; patient 0011, total daily dose 320 mg bid, Angiosarcoma) was 0, the “New Lesions” value (advanced solid tumors; patient 0012, total daily dose 320 mg bid, Prostate cancer) was 0 and the “Best Response, remark” value (advanced solid tumors; [5]) was “(signs of regression)”. The “New Lesions” value (advanced solid tumors; [5]) was 0, the “Best Response, remark” value (advanced solid tumors; [6]) was “(CA 125 normalization)” and the “New Lesions” value (advanced solid tumors; [6]) was 0. For the same molecule, the “CEA change (Best Response, remark)” value (advanced solid tumors; [7]) was “(CEA? >30-50%)”, the “New Lesions” value (advanced solid tumors; [7]) was 0 and the “New Lesions” value (advanced solid tumors; patient 0016, total daily dose 600 mg bid, Pancreatic adenocarcinoma) was 0. The “Best Response, remark” value (advanced solid tumors; [8]) was “(hollow tumor)”, the “New Lesions” value (advanced solid tumors; [8]) was 0 and the “New Lesions” value (advanced solid tumors; patient 0021, total daily dose 800 mg bid, Chondrosarcoma) was 0. For the same molecule, the “New Lesions” value (advanced solid tumors; patient 0022, total daily dose 800 mg bid, Prostate cancer) was 0, the “New Lesions” value (advanced solid tumors; patient 0023, total daily dose 800 mg bid, Adenocorticoid) was 0 and the “New Lesions” value (advanced solid tumors; patient 0024, total daily dose 1000 mg bid, Rectal cancer) was 0. The “New Lesions” value (advanced solid tumors; patient 0027, total daily dose 1400 mg bid, Colon adenocarcinoma) was 2, the “New Lesions” value (advanced solid tumors; patient 0032, total daily dose 200 mg tid, Colon adenocarcinoma) was 0 and the “New Lesions” value (advanced solid tumors; patient 0037, total daily dose 500 mg tid, Colon adenocarcinoma) was 0. For the same molecule, the progression free survival (advanced solid tumors; patients with exposure above 1.6 uM for at least 4 hours) was “improvement in progression free survival”, the anti-tumor activity ([2]; composition of particle size less than 5 micron, mice) was “potent anti-tumor activity” and the efficacy ([2]; composition with particle size greater than 20 micron, mice) was “no or weak efficacy”. The efficacy ([2]; median particle size about 2 micron, 100 mg/kg po daily, 20% gelucire, 100 mg/kg) was “surprisingly enhanced anti-tumor activity; also recorded: good efficacy; also recorded: strong efficacy; also recorded: potent efficacy”, the efficacy ([2]; median particle size about 2 micron, 100 mg/kg po daily, 20% gelucire, listed as naphthofuran compound, 100 mg/kg) was “dramatically enhanced efficacy” and the efficacy ([2]; median particle size about 20 micron, 200 mg/kg daily oral, 200 mg/kg) was “weak or moderate efficacy”. For the same molecule, the efficacy ([2]; median particle size about 20 micron, 200 mg/kg daily oral, listed as naphthofuran compound, 200 mg/kg) was “relative weak”, the anti-tumor activity ([2]; nanoparticles, D50 about 100 nanometers (110.4 nanometers)) was “reduction of anti-tumor activity” and the efficacy ([2]; particles sieved to 160 micron (150 micron), 400 mg/kg daily oral, 400 mg/kg) was “no efficacy”. For the same molecule, the efficacy ([2]; particles sieved to 160 micron (150 micron), 400 mg/kg daily oral, listed as naphthofuran compound, 400 mg/kg) was “no efficacy” and the “toxicity to cancer cells and normal cells” value [3] was “equally toxic to normal and cancer cells; also recorded: equally toxic to cancer cells and normal cells”.
